# Values quoted from earlier work, collected in US20140045806A1 (priority 2012, published 2014).
# System: vaginal nerve fibers
# Conditions: Pessina, Hoyt et al. 2006; cited from earlier work
row,Compound,Number and size of the nerve terminals in the lamina propria
1,CC(=O)[C@H]1CC[C@H]2[C@@H]3CCC4=CC(=O)CC[C@]4(C)[C@H]3CC[C@]12C [progesterone],no effect
2,C[C@]12CC[C@H]3[C@@H](CCC4=CC(=O)CC[C@@]43C)[C@@H]1CC[C@@H]2O [testosterone],increases the number and size of the nerve terminals
